Data from patent US10899741B2, “3,4-bipyridyl pyrazole derivative, and preparation method therefor and medical application thereof” (Jiangsu Hengrui Medicine Co., Ltd., priority 2016, dated 2021).

What was measured:
RIPK2 kinase = RIPK2 kinase (Homo sapiens (Human), UniProt O43353); assay: Inhibition of RIPK2 kinase activity (ADP-Glo kit); type: biochemical; conditions: ATP 50 μM, 27° C. 2.5 hours
Method: The inhibition of RIPK2 kinase activity in vitro was determined by the following method.
The inhibition effect of the compounds of the present invention on RIPK2 kinase activity was determined by the following experimental method:
RIPK2 kinase assay kit (V4084, Promega) was used to assay enzyme activity. 2 μl of RIPK2 enzyme solution (the final concentration of enzyme in the reaction system was 0.5 ng/μL) formulated with reaction buffer (40 mM Tris pH 7.5, 20 mM MgCl2, 0.1 mg/ml BSA), 1 μl of a 3-fold gradient dilution of Compound 1 dissolved in 5% DMSO, and 2 μl of a mixed solution of ATP and MBP substrate peptide (the final concentration of ATP was 50 μM, and the final concentration of substrate was 0.2 μg/μL) were added successively to a 384-well plate (4514, Corning). After reaction at 27° C. for 2.5 hours, 5 μl of ADP-Glo solution in the kit was added to each well, then the plate was placed at 27° C. for 40 minutes. 10 μl of kinase assay reagent was then added to each well, then the plate was placed at 27° C. for 30 minutes. The chemiluminescence signal values were measured with a Victor 3 (PerkinElmer) multi-function microplate reader. The IC50 values of the compounds for enzyme inhibition were calculated using Graphpad prism software based on each concentration of the compound and the corresponding signal value thereof.

[1] = Toxicity assay, repeated intragastrical administration to SD rats for 7 days; type: in vivo; conditions: 30 and 100 mg/kg qd
Method: Evaluation of the toxicity of TGFβ inhibitor Compound 1 repeatedly intragastrically administered to SD rats for 7 days.
Twenty six SPF grade SD rats (approximately 180˜200 g, 6-7 weeks old, half male and half female) were purchased from Shanghai Jiesijie Laboratory Animal Co., Ltd.
Feeding conditions: SPF grade, animals were housed in plastic transparent rat cages, and 2-3 rats per cage. Room temperature: 20-26° C., relative humidity: 40-70%. 12 hours light/12 hours dark were alternated. The rats had free access to pellet feed for rats. The rats had free access to high-temperature sterilized water via drinking bottle.
The animals were divided randomly into 5 groups, i.e. solvent control group, compound 1—30 mg/kg group, compound 1—100 mg/kg group, and the corresponding toxicokinetics groups. There were 6 rats in solvent control group, compound 1—30 mg/kg group and compound 1—100 mg/kg group, and there were 4 rats in each corresponding toxicokinetics groups, half male and half female.
The dose of the test compound in the 7-day toxicity assay in rats was 30 and 100 mg/kg (qd), respectively, and the administration was continued for 7 days. Administration route: intragastrical administration, administration dosage: 10 ml/kg, administration frequency and administration period: daily morning administration, continuous administration for 7 days.
The results of various indicators were entered into computer Excel and entered and processed by SPSS software package.
The clinical symptom, food intake and anatomical gross observation were not processed statistically, and only the observation data of the observation items in the protocol were listed. Indicators such as body weight, organ weight, and clinical examination were processed statistically using SPSS.

Chain of RIPK2 kinase (O43353 whole entry): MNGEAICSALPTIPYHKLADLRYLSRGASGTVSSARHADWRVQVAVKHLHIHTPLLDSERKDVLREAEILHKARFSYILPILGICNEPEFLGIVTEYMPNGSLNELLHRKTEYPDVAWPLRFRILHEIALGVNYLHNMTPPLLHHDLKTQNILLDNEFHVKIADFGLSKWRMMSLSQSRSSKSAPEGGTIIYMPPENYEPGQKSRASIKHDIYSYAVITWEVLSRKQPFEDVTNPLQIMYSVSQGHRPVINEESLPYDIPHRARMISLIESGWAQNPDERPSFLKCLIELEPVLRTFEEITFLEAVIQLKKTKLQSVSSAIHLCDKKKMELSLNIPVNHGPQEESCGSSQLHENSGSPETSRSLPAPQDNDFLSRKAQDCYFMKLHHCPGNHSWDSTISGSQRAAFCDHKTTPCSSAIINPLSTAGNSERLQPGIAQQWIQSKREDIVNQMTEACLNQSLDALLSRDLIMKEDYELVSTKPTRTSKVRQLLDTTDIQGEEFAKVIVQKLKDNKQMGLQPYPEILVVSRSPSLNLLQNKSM

## Cc1cccc(-c2nn(C3CCC3)cc2-c2ccnc(-c3ccc(S(C)(=O)=O)cc3)c2)n1 [Example 1, 4-(1-Cyclobutyl-3-(6-methylpyridin-2-yl)-1H-pyrazol-4-yl)-2-(4-(methylsulfonyl)phenyl)pyridine]
RIPK2 kinase
  IC50: 1200 nM
[1]; 7 days
  Blood biochemical indicators: No toxicological changes
  Coagulation function and urine indexes compared with the solvent control group: no obvious abnormalities
  Food intake: no obvious change
  Safety under the conditions of this assay: good safety
[1]; 7 days, intragastrical
  Clinical observation of the animals during the administration: no obvious abnormality
[1]; 7 days, p>0.05
  Body weight and body weight growth rate compared with the solvent control group: no significant difference
[1]; after the last administration
  Gross pathological anatomy (autopsy): no obvious abnormalities
